Source: patent US9416139B2, “Spiro ring compound as hepatitis C virus (HCV) inhibitor and uses thereof” (SUNSHINE LAKE PHARMA CO., LTD., priority 2012, dated 2016)

Key:
[1] = tested on: HCV 1a replicon; assay: HCV GT1a replicon assay in Huh-7 cells; assay type: cell-based, Hepatitis C virus; conditions: Hepatitis C virus; Huh-7 cells transfected with HCV replicon, 72 hours incubation; read-out: EC50 against HCV 1a genotype
Protocol: (§1) HCV Replicon System was utilized as an evaluation model in the present disclosure for verifying the effects of the compounds disclosed herein on HCV. An HCV Replicon assay was first described in Science, 1999, 285 (5424), 110-3. […] To determine the potential anti-HCV effects of the test compounds, luciferase assay and antibiotic Neomycin resistance gene were tested according to the method described in Science. 1999 Jul. 2; 285 (5424), 110-3 and J. Virol. 2003 March; 77 (5), 3007-19.
(§2) In a word, the compounds disclosed herein were tested by using human hepatic carcinoma cell line which is transfected stably HCV GT1a, GT1b or GT2a replicon respectively, and resistant cells Y93H, L31F, P32L or I302V and wild-type cells HCV 1b. HCV Replicon System disclosed herein containing Neomycin resistance gene and Luciferase Reporter Gene, the level of HCV replication in host cells is characterized by the expression level of the NEO gene expression level or Luciferase Reporter Gene, and the effects of the compounds herein inhibit HCV replication can be evaluated. In this article, a real-time quantitative polymerase chain reaction (qPCR) method was used to detect NEO gene expression level, and chemiluminescence method was used to test Luciferase Reporter Gene expression level.
(§3) 1. Test Method for Measuring EC50 of the Compounds Base on Luciferase Assay.
(§4) The Huh-7 cells transfected with HCV replicons system were seeded into 96-well plates (8,000 cells in 125 μL/well) respectively; each test compound was diluted to desired concentration using 5-fold serial dilutions protocol, 10 doses in duplicate, and added to wells with POD™ 810 Plate Assembler. […] In this paper, experiments were repeated twice and set the holes without compounds as negative control.
(§5) 2. Test Method for Measuring EC50 of the Compounds by Detecting Antibiotic G418 Resistance Gene NEO Gene.
(§6) In this paper, experiments were repeated twice and set the holes without compounds as negative control.

[2] = tested on: HCV 1b replicon; assay: HCV GT1b replicon assay in Huh-7 cells; assay type: cell-based, Hepatitis C virus; conditions: Hepatitis C virus; Huh-7 cells transfected with HCV replicon, 72 hours incubation; read-out: EC50 against HCV 1b genotype
Protocol: as §1, §2, §3, §4, §5, §6

Compound | EC50 [1] [nM] | EC50 [2] [nM]
COC(=O)N[C@H](C(=O)N1CCC[C@H]1c1ncc(-c2ccc(-c3ccc(-c4ccc5nc([C@@H]6CCCN6C(=O)[C@@H](NC(=O)OC)C(C)C)[nH]c(=O)c5c4)c4c3CC3(CCCC3)C4)cc2)[nH]1)C(C)C [Example 1] | 0.76 | 0.042
COC(=O)N[C@H](C(=O)N1CCC[C@H]1c1cc(=O)c2cc(-c3ccc(-c4ccc(-c5cnc([C@@H]6CCCN6C(=O)[C@@H](NC(=O)OC)C(C)C)[nH]5)cc4)c4c3CC3(CCCC3)C4)ccc2[nH]1)C(C)C [Example 2] | 1.28 | 0.087
COC(=O)N[C@H](C(=O)N1CCC[C@H]1C1=Nc2cc(-c3ccc(-c4ccc(-c5cnc([C@@H]6CCCN6C(=O)[C@@H](NC(=O)OC)C(C)C)[nH]5)cc4)c4c3CC3(CCCC3)C4)ccc2C(C)(C)N1)C(C)C [Example 3] | 0.537 | 0.04
COC(=O)N[C@H](C(=O)N1CCC[C@H]1C1=Nc2cc(-c3ccc(-c4ccc(-c5cnc([C@@H]6CCCN6C(=O)[C@@H](NC(=O)OC)C(C)C)[nH]5)cc4)c4c3CC3(CCCC3)C4)ccc2C2(COC2)N1)C(C)C [Example 4] | 0.089 | 0.016
COC(=O)N[C@H](C(=O)N1CCC[C@H]1C1=Nc2cc(-c3ccc(-c4ccc(-c5cnc([C@@H]6CCCN6C(=O)[C@@H](NC(=O)OC)C(C)C)[nH]5)cc4)c4c3CC3(CCCC3)C4)ccc2S(=O)(=O)N1)C(C)C [Example 5] | 0.078 | 0.023
COC(=O)N[C@H](C(=O)N1CCC[C@H]1c1nc2ccc(-c3ccc(-c4ccc5nc([C@@H]6CCCN6C(=O)[C@@H](NC(=O)OC)C(C)C)[nH]c(=O)c5c4)c4c3CC3(CCCC3)C4)cc2c(=O)[nH]1)C(C)C [Example 6] | 0.109 | 0.077
COC(=O)N[C@H](C(=O)N1CCC[C@H]1c1ncc(C#Cc2ccc(-c3ccc4nc([C@@H]5CCCN5C(=O)[C@@H](NC(=O)OC)C(C)C)[nH]c(=O)c4c3)c3c2CC2(CCCC2)C3)[nH]1)C(C)C [Example 7] | 0.21 | 0.103
CCC(C)[C@H](NC(=O)OC)C(=O)N1CCC[C@H]1c1nc(=O)c2cc(-c3ccc(-c4ccc(-c5cnc([C@@H]6CCCN6C(=O)[C@@H](NC(=O)OC)C(C)C)[nH]5)cc4)c4c3CC3(CCCCC3)C4)ccc2[nH]1 (stereo partly shown) [Example 8] | 0.982 | 0.065
COC(=O)N[C@H](C(=O)N1C[C@@H](F)C[C@H]1c1nc(-c2ccc(-c3ccc(-c4ccc5nc([C@@H]6C[C@H](F)CN6C(=O)[C@@H](NC(=O)OC)C(C)C)[nH]c(=O)c5c4)c4c3CC3(CCCCC3)C4)cc2)c[nH]1)C(C)C [Example 9] | 0.439 | 0.072
COC(=O)N[C@H](C(=O)N1CCC[C@H]1c1ncc(-c2ccc(-c3ccc(-c4ccc5nc([C@@H]6CC7CC7N6C(=O)[C@@H](NC(=O)OC)C(C)C)[nH]c(=O)c5c4)c4c3CC3(CCN(C)CC3)C4)cc2)[nH]1)C(C)C (stereo partly shown) [Example 10] | 1.27 | 0.438
COC(=O)N[C@H](C(=O)N1CCC[C@H]1c1ncc(-c2ccc(-c3ccc(-c4ccc5nc([C@@H]6CC7CC7N6C(=O)[C@@H](NC(=O)OC)C(C)C)[nH]c(=O)c5c4)c4c3OC3(CCCC3)O4)cc2)[nH]1)C(C)C (stereo partly shown) [Example 11] | 0.068 | 0.032
COC(=O)N[C@H](C(=O)N1CC(F)(F)CC1c1nc(-c2ccc(-c3ccc(-c4ccc5nc([C@@H]6CC(F)(F)CN6C(=O)[C@@H](NC(=O)OC)C(C)C)[nH]c(=O)c5c4)c4c3CC3(CCOCC3)C4)cc2)c[nH]1)C(C)C (stereo partly shown) [Example 12] | 0.38 | 0.049
COC(=O)N[C@H](C(=O)N1CCC[C@H]1c1ncc(-c2ccc(-c3ccc(-c4ccc5nc([C@@H]6CCCN6C(=O)[C@@H](NC(=O)OC)c6ccccc6)[nH]c(=O)c5c4)c4c3CC3(CCCC3)C4)cc2)[nH]1)c1ccccc1 [Example 13] | 2.07 | 0.273
COC(=O)N[C@@H](C)C(=O)N1CCC[C@H]1c1ncc(-c2ccc(-c3ccc(-c4ccc5nc([C@@H]6CCCN6C(=O)[C@H](C)NC(=O)OC)[nH]c(=O)c5c4)c4c3CC3(CCCC3)C4)cc2)[nH]1 [Example 14] | 0.884 | 0.013
